Active and inactive are the calls of the source.
Experiments:
Large T antigen = Large T antigen (Simian virus 40, UniProt P03070); assay type: functional, Betapolyomavirus macacae;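 also: Confirmatory-stage PubChem screen for compounds that inhibit SV40 T antigen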
[1] = biological target: T1, Heat shock factor protein 1 (Mus musculus, UniProt P38532); experiment: enhancement of HSF1-driven luciferase signal – cell-based, NIH3T3, luminescence, dose retest, confirmation (AID 435004); assay type: functional;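 also: stress induced by proteasome inhibitor MG132 added 30 min after compound; luciferase reporter driven by HSF1 response element in NIH3T3 cells; actives raise luminescence as potentiators of the MG132 stress response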
T1 sequence (P38532 whole entry): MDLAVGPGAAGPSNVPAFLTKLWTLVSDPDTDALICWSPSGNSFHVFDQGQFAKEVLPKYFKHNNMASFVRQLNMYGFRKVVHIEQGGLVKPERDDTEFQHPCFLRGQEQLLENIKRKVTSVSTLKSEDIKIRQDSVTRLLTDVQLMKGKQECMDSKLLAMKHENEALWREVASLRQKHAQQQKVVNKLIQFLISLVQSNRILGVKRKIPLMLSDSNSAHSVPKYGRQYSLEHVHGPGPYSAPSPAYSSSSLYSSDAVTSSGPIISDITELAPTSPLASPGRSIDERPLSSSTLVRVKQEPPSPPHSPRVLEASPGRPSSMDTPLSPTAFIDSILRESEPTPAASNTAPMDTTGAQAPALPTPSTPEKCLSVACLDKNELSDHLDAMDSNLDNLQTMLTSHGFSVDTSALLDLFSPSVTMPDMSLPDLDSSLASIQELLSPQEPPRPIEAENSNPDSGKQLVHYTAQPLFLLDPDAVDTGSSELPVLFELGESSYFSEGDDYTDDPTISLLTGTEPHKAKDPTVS

[2] = HEK-293T viability loss after treatment – luminescence, T-cell screen hits, cytotoxicity control for TCR NF-kB inhibitor project, dose response (AID 489026); assay type: functional, cell-based;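 also: cells exposed to compound about 14 hours before the viability readout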
[3] = biological target: Glucose-6-phosphate 1-dehydrogenase (Homo sapiens, UniProt P11413); experiment: inhibition of Homo sapiens G6PD, dose series – biochemical, fluorescence, selectivity assay for P. falciparum G6PD inhibitor project, dose response (AID 504792); assay type: functional
Sequence of Glucose-6-phosphate 1-dehydrogenase (P11413 whole entry): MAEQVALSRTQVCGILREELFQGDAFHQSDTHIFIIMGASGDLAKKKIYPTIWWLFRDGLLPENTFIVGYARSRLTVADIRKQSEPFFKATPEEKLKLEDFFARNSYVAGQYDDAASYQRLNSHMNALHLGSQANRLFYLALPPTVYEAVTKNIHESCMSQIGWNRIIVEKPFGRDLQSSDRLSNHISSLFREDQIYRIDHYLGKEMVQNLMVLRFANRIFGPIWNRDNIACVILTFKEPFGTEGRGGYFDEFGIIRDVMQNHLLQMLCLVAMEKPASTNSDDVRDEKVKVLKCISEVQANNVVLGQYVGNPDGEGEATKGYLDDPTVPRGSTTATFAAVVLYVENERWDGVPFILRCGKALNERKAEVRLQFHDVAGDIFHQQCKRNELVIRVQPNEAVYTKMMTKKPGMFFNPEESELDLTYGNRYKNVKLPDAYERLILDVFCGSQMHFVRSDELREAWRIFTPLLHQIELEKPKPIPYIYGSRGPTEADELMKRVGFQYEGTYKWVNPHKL

[4] = Luminescence Cell-Based Dose Confirmation HTS to Identify Activators of 5'UTR Stem-Loop Driven Alpha-Synuclein mRNA Translation in H4 Neuroglioblastoma Cells. [Related pubchem assays: 1829 (Project Summary), 1814 (Primary HTS)]; assay type: functional
Caspase-3 = biological target: T2, Caspase-3 (Homo sapiens, UniProt P42574); assay type: functional;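 also: Dose-response selectivity test against caspase-3 for candidate inhibitors of sentrin-specific proteases (SENPs)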
T2 sequence (P42574 whole entry): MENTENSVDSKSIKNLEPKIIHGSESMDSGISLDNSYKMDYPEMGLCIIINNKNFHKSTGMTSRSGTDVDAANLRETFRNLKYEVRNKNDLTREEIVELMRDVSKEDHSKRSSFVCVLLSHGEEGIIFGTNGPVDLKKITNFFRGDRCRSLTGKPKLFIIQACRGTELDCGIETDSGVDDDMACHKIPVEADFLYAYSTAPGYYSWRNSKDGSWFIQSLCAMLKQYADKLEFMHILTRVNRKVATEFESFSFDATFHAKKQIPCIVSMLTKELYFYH

Protein skinhead-1 = biological target: T3, Protein skinhead-1 (Caenorhabditis elegans, UniProt P34707); assay type: functional
T3 sequence (P34707 whole entry): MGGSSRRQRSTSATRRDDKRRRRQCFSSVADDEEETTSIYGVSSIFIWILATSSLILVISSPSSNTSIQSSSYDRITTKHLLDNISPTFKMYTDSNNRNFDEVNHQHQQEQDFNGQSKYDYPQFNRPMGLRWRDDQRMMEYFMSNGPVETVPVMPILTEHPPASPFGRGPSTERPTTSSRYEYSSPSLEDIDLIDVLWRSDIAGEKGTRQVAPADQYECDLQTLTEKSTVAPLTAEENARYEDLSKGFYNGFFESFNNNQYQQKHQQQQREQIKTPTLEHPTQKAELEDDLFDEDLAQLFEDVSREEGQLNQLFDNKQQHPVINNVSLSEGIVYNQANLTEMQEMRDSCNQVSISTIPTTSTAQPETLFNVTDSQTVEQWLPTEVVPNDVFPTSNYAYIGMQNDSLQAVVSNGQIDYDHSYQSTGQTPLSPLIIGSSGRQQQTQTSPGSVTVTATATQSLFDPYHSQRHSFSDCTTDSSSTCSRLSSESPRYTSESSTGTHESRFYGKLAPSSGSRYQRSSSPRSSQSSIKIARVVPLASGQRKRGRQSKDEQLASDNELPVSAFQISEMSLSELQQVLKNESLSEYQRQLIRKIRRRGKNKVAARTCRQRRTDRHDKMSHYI

[5] = biological target: T4, Sentrin-specific protease 6 (Homo sapiens, UniProt Q9GZR1); assay type: functional;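 also: Luminescence-based dose-response confirmatory assay of SENP6 inhibition, following up an ultra-high-throughput screen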
T4 sequence (Q9GZR1 whole entry): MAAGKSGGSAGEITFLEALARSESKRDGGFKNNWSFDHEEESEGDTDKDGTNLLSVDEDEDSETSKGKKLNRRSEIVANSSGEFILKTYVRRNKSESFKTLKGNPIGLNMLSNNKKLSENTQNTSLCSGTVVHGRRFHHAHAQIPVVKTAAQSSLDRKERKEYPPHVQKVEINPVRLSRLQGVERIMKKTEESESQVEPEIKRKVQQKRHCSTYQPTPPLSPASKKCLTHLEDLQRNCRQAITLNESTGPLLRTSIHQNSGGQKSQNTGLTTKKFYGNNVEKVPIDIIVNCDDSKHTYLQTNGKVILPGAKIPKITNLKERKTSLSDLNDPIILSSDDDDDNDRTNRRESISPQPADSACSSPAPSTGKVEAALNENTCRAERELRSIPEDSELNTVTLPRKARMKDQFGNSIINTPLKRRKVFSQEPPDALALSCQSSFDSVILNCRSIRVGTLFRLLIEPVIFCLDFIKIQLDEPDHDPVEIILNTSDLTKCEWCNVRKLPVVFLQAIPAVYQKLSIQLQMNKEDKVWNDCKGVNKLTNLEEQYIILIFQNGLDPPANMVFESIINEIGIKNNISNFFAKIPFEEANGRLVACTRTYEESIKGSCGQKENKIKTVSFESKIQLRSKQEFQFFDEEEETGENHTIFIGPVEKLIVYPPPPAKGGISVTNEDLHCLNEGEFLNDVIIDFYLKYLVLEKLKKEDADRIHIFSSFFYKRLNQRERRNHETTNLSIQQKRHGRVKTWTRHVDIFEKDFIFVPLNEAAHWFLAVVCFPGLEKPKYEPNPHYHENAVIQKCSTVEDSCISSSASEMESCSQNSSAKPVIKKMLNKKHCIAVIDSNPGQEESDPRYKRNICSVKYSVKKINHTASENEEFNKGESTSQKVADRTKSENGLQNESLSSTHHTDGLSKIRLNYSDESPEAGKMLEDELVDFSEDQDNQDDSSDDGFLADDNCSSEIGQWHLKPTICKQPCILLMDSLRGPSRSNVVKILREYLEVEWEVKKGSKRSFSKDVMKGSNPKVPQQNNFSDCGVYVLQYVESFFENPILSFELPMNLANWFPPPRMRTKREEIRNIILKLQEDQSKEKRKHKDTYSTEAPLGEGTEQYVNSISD

[6] = biological target: T5, Sentrin-specific protease 7 (Homo sapiens, UniProt Q9BQF6); assay type: functional;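 also: Luminescence-based dose-response confirmation of ultra-high-throughput screening hits, measuring inhibition of SENP7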
T5 sequence (Q9BQF6 whole entry): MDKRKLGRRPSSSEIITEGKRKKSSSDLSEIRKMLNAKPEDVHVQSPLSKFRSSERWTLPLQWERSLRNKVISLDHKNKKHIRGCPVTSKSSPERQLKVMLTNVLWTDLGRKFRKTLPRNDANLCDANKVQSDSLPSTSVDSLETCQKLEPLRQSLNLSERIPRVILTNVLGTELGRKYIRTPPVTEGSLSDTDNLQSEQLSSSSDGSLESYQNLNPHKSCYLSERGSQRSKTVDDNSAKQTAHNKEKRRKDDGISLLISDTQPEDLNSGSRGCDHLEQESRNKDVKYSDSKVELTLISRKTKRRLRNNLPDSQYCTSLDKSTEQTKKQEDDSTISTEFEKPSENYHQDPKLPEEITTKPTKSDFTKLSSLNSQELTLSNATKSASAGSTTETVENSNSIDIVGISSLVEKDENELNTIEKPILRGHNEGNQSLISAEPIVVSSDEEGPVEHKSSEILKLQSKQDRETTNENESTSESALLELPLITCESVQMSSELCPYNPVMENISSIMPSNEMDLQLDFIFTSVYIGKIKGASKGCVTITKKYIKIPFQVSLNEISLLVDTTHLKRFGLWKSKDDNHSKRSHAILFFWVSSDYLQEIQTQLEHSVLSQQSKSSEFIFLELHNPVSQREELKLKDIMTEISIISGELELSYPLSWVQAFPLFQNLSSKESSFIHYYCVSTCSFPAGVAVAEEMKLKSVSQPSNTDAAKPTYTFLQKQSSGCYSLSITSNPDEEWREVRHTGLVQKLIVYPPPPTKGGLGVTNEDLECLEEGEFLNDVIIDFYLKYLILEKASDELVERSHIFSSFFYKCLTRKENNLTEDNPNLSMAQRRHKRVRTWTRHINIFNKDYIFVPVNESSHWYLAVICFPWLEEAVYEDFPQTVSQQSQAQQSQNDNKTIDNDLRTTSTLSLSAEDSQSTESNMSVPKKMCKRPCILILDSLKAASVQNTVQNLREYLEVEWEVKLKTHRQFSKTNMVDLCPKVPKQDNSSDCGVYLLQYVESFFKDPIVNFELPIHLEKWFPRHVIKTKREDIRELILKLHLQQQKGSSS

[7] = biological target: T6, Sentrin-specific protease 8 (Homo sapiens, UniProt Q96LD8); assay type: functional;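 also: luminescence read-out of SENP8 inhibition, dose-response confirmation following an ultra-high-throughput screen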
T6 sequence (Q96LD8 whole entry): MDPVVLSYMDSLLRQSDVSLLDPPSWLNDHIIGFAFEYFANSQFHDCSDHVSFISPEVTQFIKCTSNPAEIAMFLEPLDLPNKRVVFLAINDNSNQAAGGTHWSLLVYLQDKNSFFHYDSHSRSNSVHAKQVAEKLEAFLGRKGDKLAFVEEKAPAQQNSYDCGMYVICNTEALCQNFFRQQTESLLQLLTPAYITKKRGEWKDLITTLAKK

H4 = experiment: Luminescence Cell-Based Dose Response HTS to Identify Activators of 5'UTR Stem-Loop Driven Prion Protein mRNA Translation in H4 Neuroglioblastoma Cells. [Related pubchem assays: 1829 (Project Summary), 1814 (Primary HTS)]; assay type: functional; conditions: Homo sapiens
[8] = Luminescence Cell-Based Dose Response HTS to Identify Activators of Luciferase Translation or Activity in H4 […] Cells. [Related pubchem assays: 1829 (Project Summary), 1814 (Primary HTS)]; assay type: functional
[9] = biological target: T7, Carboxy-terminal domain RNA polymerase II polypeptide A small phosphatase 1 (Homo sapiens, UniProt Q9GZU7); experiment: CTDSP1 inhibitors, concentration-response, biochemical, absorbance readout, ultra-high-throughput screen actives (AID 540297); assay type: functional
T7 sequence (Q9GZU7 whole entry): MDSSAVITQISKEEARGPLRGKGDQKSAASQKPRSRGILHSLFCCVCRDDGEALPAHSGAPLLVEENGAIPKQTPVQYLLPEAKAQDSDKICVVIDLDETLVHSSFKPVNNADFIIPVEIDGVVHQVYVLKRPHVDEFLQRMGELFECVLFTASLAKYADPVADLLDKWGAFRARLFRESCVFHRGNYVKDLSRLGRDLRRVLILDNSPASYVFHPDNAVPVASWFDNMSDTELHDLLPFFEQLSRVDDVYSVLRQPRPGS

[10] = luciferase reporter signal suppression in cells – H4 neuroglioma cells, luminescence, dose response (AID 1990); assay type: functional, cell-based
[11] = Luminescence Cell-Based Dose Response HTS to Identify Inhibitors of 5'UTR Stem-Loop Driven Prion Protein mRNA Translation in H4 Neuroglioblastoma Cells. [Related pubchem assays: 1827 (Project Summary), 1813 (Primary HTS)]; assay type: functional
Paired box protein Pax-8 = Paired box protein Pax-8 (Homo sapiens, UniProt Q06710); experiment: PAX8 transcriptional activity inhibition in RMG-I – RMG-I cells, luciferase, cherry-pick, dose response (AID 687027); assay type: functional, cell-based;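 also: luciferase reporter driven by Pax8 target thyroperoxidase promoter measured by SteadyGlo luminescence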
Sequence of Paired box protein Pax-8 (Q06710 whole entry): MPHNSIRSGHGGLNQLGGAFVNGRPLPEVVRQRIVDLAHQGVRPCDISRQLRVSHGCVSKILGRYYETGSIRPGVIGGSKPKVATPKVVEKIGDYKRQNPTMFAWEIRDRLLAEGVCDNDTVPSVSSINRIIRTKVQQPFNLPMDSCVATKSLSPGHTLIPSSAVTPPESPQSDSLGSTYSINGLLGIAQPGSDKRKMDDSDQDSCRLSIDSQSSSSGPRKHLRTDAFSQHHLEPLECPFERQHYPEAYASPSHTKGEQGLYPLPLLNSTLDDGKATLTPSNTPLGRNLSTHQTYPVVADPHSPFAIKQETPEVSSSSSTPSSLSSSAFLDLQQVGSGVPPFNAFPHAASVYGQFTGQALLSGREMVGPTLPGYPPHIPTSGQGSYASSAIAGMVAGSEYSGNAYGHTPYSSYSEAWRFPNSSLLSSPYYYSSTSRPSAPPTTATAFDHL

[12] = microbe, parasite or virus in culture; assay type: functional; conditions: Mycobacterium tuberculosis
[13] = alpha-synuclein stem-loop luciferase translation blockers – H4 neuroglioma cells, luminescence, confirmation (AID 1988); assay type: functional, cell-based
INS1 = experiment: INS-1E survival protection against cytokine death – cell-based, luminescence, retest, dose response (AID 449756); assay type: functional; conditions: Rattus norvegicus;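 also: cell death triggered by IL-1 beta plus TNF-alpha plus IFN-gamma mixture; protective hits raise ATP signal compared with cytokine alone wells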
Nonstructural protein 1 = Nonstructural protein 1 (Influenza A virus, UniProt Q194T2); assay type: functional, Influenza A virus (A/California/07/2009(H1N1))
Sequence of Nonstructural protein 1 (Q194T2 whole entry): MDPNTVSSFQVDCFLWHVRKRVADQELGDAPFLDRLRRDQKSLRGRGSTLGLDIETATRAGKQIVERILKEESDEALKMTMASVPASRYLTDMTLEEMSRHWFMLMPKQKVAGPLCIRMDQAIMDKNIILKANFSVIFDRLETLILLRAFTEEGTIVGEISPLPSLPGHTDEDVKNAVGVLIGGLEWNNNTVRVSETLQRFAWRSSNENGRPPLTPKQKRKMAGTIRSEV

Sequence of Large T antigen (P03070 whole entry): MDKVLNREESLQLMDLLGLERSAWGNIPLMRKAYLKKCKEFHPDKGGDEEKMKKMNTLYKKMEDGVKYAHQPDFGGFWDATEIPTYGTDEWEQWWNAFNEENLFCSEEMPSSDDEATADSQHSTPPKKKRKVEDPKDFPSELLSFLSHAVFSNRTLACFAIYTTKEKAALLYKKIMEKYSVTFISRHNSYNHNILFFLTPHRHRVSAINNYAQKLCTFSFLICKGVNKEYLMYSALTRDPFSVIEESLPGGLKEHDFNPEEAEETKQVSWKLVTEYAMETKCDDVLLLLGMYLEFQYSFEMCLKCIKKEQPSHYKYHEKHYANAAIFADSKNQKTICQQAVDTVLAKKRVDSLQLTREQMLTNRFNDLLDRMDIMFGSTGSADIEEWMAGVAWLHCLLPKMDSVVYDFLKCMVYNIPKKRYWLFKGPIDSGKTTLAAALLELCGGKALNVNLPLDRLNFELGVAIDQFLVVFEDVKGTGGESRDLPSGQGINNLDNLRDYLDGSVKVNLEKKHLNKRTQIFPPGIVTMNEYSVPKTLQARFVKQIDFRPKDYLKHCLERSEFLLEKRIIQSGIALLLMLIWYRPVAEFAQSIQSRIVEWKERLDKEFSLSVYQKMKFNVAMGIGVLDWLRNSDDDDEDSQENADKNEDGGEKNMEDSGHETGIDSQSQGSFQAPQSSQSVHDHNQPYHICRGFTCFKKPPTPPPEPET

C[C@]12CC[C@@H]3c4cc(O)c(O)cc4CC[C@H]3[C@@H]1CC[C@@H]2O
IC50 (Large T antigen): > 100 µM (active) | EC50 [1]: 4.07 µM (active) | IC50 [2]: > 80 µM (inactive) | IC50 [3]: 72.5 µM (inactive)

O=C(Nc1nccs1)c1ccc(-c2ccccc2Cl)o1
EC50 [4]: 27 µM (active) | IC50 (Caspase-3): 22 µM (active) | IC50 (Protein skinhead-1): > 100 µM (inactive) | IC50 [5]: > 100 µM (inactive) | IC50 [6]: 4.57 µM (active) | IC50 [7]: 25.1 µM (active) | EC50 (H4): 23.5 µM (inconclusive) | EC50 [8]: 106 µM (active)

Cc1ccc(O)c(NC(=O)CCC2CCCCC2)c1
IC50 [2]: > 80 µM (inactive)

O=C(CCN1C(=O)S/C(=C\c2ccc(Cl)cc2)C1=O)Nc1ccc(C(=O)O)cc1
IC50 [9]: 6.17 µM (active)

CCCCCCCCn1c2c(c(=N)c3c1CCC3)CCCC2
EC50 [10]: 4.15 µM (active) | EC50 [11]: 32.4 µM (active) | AC50 (Paired box protein Pax-8): 2.36 µM (active) | CC50 [12]: 32.7 µM (active) | EC50 [13]: 7.18 µM (active) | AC50 (INS1): < 0.195 µM (active) | IC50 [2]: 73.8 µM (inactive)

CCc1ccc(OCC(=O)NNC(=O)c2ccc(NC(=O)C3CC3)cc2)cc1
IC50 [9]: 10.5 µM (active)

O=C(CCCc1ccccc1)c1ccccc1
IC50 (Caspase-3): 13.5 µM (active) | IC50 [5]: 20.4 µM (active) | IC50 [6]: 7.31 µM (active) | IC50 [7]: 54.9 µM (active)

CN1CCN(c2cc(N3CCCCCC3)c(F)cc2[N+](=O)[O-])CC1
IC50 (Nonstructural protein 1): > 100 µM (active)

O=C(CCN1C(=O)/C(=C/c2ccc(Cl)cc2)SC1=S)Nc1ccc(C(=O)O)cc1
IC50 [9]: 2.64 µM (active)

CN1CCN(C(=O)c2cccc(-c3cc(O)c4ncccc4c3)c2)CC1
IC50 (Nonstructural protein 1): 11.4 µM (active)

— ChEMBL document CHEMBL1201862, “PubChem BioAssay data set” (2004)
